From PubChem BioAssay (NCI)
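Growth conditions: 96-well plates. Treatment: test compound, 48 hours, 5 concentrations. Analysis: linear interpolation between bracketing concentrations; unreached endpoints set to highest concentration. At the GI50, growth is halved. TGI is the concentration that stops growth completely.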

Columns and labels:
Test in all cases: growth of human tumour cells (NCI), 48 h
OVCAR-8 ovarian = system: OVCAR-8 ovarian
HCC-2998 colon = system: HCC-2998 colon
CAKI-1 renal = system: CAKI-1 renal
HL-60(TB) leukemia = system: HL-60(TB) leukemia
SF-539 CNS = system: SF-539 CNS
IGROV1 ovarian = system: IGROV1 ovarian
SF-268 CNS = system: SF-268 CNS
LOX IMVI melanoma = system: LOX IMVI melanoma
MDA-MB-231 breast = system: MDA-MB-231 breast
NCI-H226 lung = system: NCI-H226 lung
UACC-62 melanoma = system: UACC-62 melanoma
RXF 393 renal = system: RXF 393 renal
786-0 renal = system: 786-0 renal
NCI-H522 lung = system: NCI-H522 lung
PC-3 prostate = system: PC-3 prostate
BT-549 breast = system: BT-549 breast
SK-MEL-5 melanoma = system: SK-MEL-5 melanoma
SK-MEL-2 melanoma = system: SK-MEL-2 melanoma
HCT-116 colon = system: HCT-116 colon
SR leukemia = system: SR leukemia
HOP-92 NSCLC = system: HOP-92 NSCLC
K-562 leukemia = system: K-562 leukemia
SF-295 CNS = system: SF-295 CNS
SNB-19 CNS = system: SNB-19 CNS
HT29 colon = system: HT29 colon
MCF7 breast = system: MCF7 breast
UO-31 renal = system: UO-31 renal
MALME-3M melanoma = system: MALME-3M melanoma
MDA-MB-435 = system: MDA-MB-435
EKVX NSCLC = system: EKVX NSCLC
HOP-62 NSCLC = system: HOP-62 NSCLC
SK-OV-3 ovarian = system: SK-OV-3 ovarian
A549 NSCLC = system: A549 NSCLC
ACHN renal = system: ACHN renal
OVCAR-4 ovarian = system: OVCAR-4 ovarian
COLO 205 colon = system: COLO 205 colon
SN12C renal = system: SN12C renal
OVCAR-3 ovarian = system: OVCAR-3 ovarian
KM12 colon = system: KM12 colon
NCI-H460 lung = system: NCI-H460 lung
SW-620 colon = system: SW-620 colon
TK-10 renal = system: TK-10 renal
RPMI-8226 leukemia = system: RPMI-8226 leukemia
CCRF-CEM leukemia = system: CCRF-CEM leukemia
DU-145 prostate = system: DU-145 prostate
U251 CNS = system: U251 CNS
UACC-257 melanoma = system: UACC-257 melanoma
SK-MEL-28 melanoma = system: SK-MEL-28 melanoma
SNB-75 CNS = system: SNB-75 CNS
OVCAR-5 ovarian = system: OVCAR-5 ovarian
MOLT-4 leukemia = system: MOLT-4 leukemia
HS 578T breast = system: HS 578T breast
HCT-15 colon = system: HCT-15 colon
NCI/ADR-RES ovarian = system: NCI/ADR-RES ovarian
NCI-H23 lung = system: NCI-H23 lung
M14 melanoma = system: M14 melanoma
A498 renal = system: A498 renal

C=C1C(O)C2C(=C(CCC3CC3)C13CC3)C(=O)C(C)(C)C2O (configuration not stated)
GI50 (OVCAR-8 ovarian): > 100 µM
TGI (OVCAR-8 ovarian): > 100 µM
GI50 (HCC-2998 colon): > 100 µM
TGI (HCC-2998 colon): > 100 µM
GI50 (CAKI-1 renal): 45.8 µM
TGI (CAKI-1 renal): > 100 µM
GI50 (HL-60(TB) leukemia): > 100 µM
TGI (HL-60(TB) leukemia): > 100 µM
GI50 (SF-539 CNS): > 100 µM
TGI (SF-539 CNS): > 100 µM
GI50 (IGROV1 ovarian): > 100 µM
TGI (IGROV1 ovarian): > 100 µM
GI50 (SF-268 CNS): > 100 µM
TGI (SF-268 CNS): > 100 µM
GI50 (LOX IMVI melanoma): > 100 µM
TGI (LOX IMVI melanoma): > 100 µM
GI50 (MDA-MB-231 breast): 29.1 µM
TGI (MDA-MB-231 breast): 99 µM
GI50 (NCI-H226 lung): > 100 µM
TGI (NCI-H226 lung): > 100 µM
GI50 (UACC-62 melanoma): 87.4 µM
TGI (UACC-62 melanoma): > 100 µM
GI50 (RXF 393 renal): 32.9 µM
TGI (RXF 393 renal): > 100 µM
GI50 (786-0 renal): > 100 µM
TGI (786-0 renal): > 100 µM
GI50 (NCI-H522 lung): 60.4 µM
TGI (NCI-H522 lung): > 100 µM
GI50 (PC-3 prostate): 92.3 µM
TGI (PC-3 prostate): > 100 µM
GI50 (BT-549 breast): > 100 µM
TGI (BT-549 breast): > 100 µM
GI50 (SK-MEL-5 melanoma): 42.1 µM
TGI (SK-MEL-5 melanoma): > 100 µM
GI50 (SK-MEL-2 melanoma): > 100 µM
TGI (SK-MEL-2 melanoma): > 100 µM
GI50 (HCT-116 colon): > 100 µM
TGI (HCT-116 colon): > 100 µM
GI50 (SR leukemia): 32.1 µM
TGI (SR leukemia): > 100 µM
GI50 (HOP-92 NSCLC): 34.2 µM
TGI (HOP-92 NSCLC): > 100 µM
GI50 (K-562 leukemia): 61.3 µM
TGI (K-562 leukemia): > 100 µM
GI50 (SF-295 CNS): 55.8 µM
TGI (SF-295 CNS): > 100 µM
GI50 (SNB-19 CNS): > 100 µM
TGI (SNB-19 CNS): > 100 µM
GI50 (HT29 colon): > 100 µM
TGI (HT29 colon): > 100 µM
GI50 (MCF7 breast): 58.7 µM
TGI (MCF7 breast): > 100 µM
GI50 (UO-31 renal): > 100 µM
TGI (UO-31 renal): > 100 µM
GI50 (MALME-3M melanoma): > 100 µM
TGI (MALME-3M melanoma): > 100 µM
GI50 (MDA-MB-435): > 100 µM
TGI (MDA-MB-435): > 100 µM
GI50 (EKVX NSCLC): > 100 µM
TGI (EKVX NSCLC): > 100 µM
GI50 (HOP-62 NSCLC): > 100 µM
TGI (HOP-62 NSCLC): > 100 µM
GI50 (SK-OV-3 ovarian): 30.1 µM
TGI (SK-OV-3 ovarian): > 100 µM
GI50 (A549 NSCLC): > 100 µM
TGI (A549 NSCLC): > 100 µM
GI50 (ACHN renal): > 100 µM
TGI (ACHN renal): > 100 µM
GI50 (OVCAR-4 ovarian): > 100 µM
TGI (OVCAR-4 ovarian): > 100 µM
GI50 (COLO 205 colon): > 100 µM
TGI (COLO 205 colon): > 100 µM
GI50 (SN12C renal): 71.3 µM
TGI (SN12C renal): > 100 µM
GI50 (OVCAR-3 ovarian): 59.5 µM
TGI (OVCAR-3 ovarian): > 100 µM
GI50 (KM12 colon): > 100 µM
TGI (KM12 colon): > 100 µM
GI50 (NCI-H460 lung): 80.9 µM
TGI (NCI-H460 lung): > 100 µM
GI50 (SW-620 colon): > 100 µM
TGI (SW-620 colon): > 100 µM
GI50 (TK-10 renal): > 100 µM
TGI (TK-10 renal): > 100 µM
GI50 (RPMI-8226 leukemia): 43.7 µM
TGI (RPMI-8226 leukemia): > 100 µM
GI50 (CCRF-CEM leukemia): > 100 µM
TGI (CCRF-CEM leukemia): > 100 µM
GI50 (DU-145 prostate): > 100 µM
TGI (DU-145 prostate): > 100 µM
GI50 (U251 CNS): 89.9 µM
TGI (U251 CNS): > 100 µM
GI50 (UACC-257 melanoma): 71.3 µM
TGI (UACC-257 melanoma): > 100 µM
GI50 (SK-MEL-28 melanoma): 76.2 µM
TGI (SK-MEL-28 melanoma): > 100 µM
GI50 (SNB-75 CNS): 23.2 µM
TGI (SNB-75 CNS): > 100 µM
GI50 (OVCAR-5 ovarian): > 100 µM
TGI (OVCAR-5 ovarian): > 100 µM
GI50 (MOLT-4 leukemia): 44.3 µM
TGI (MOLT-4 leukemia): > 100 µM
GI50 (HS 578T breast): 25.7 µM
TGI (HS 578T breast): > 100 µM
GI50 (HCT-15 colon): > 100 µM
TGI (HCT-15 colon): > 100 µM
GI50 (NCI/ADR-RES ovarian): > 100 µM
TGI (NCI/ADR-RES ovarian): > 100 µM
GI50 (NCI-H23 lung): 76.2 µM
TGI (NCI-H23 lung): > 100 µM
GI50 (M14 melanoma): > 100 µM
TGI (M14 melanoma): > 100 µM

COc1cc2c(cc1OCCCN1CCN(C)CC1)N=C[C@@H]1CCCN1C2=O
TGI (OVCAR-8 ovarian): 8.79 µM
TGI (CAKI-1 renal): 3.12 µM
TGI (HL-60(TB) leukemia): 5.37 µM
TGI (SF-539 CNS): 4.97 µM
TGI (SF-268 CNS): > 100 µM
TGI (LOX IMVI melanoma): 4.38 µM
TGI (MDA-MB-231 breast): 22.3 µM
TGI (NCI-H226 lung): 4.62 µM
TGI (UACC-62 melanoma): 3.75 µM
TGI (RXF 393 renal): 6.03 µM
TGI (A498 renal): 5.75 µM
TGI (786-0 renal): 18.3 µM
TGI (NCI-H522 lung): 0.518 µM
TGI (PC-3 prostate): 9.78 µM
TGI (BT-549 breast): 6.59 µM
TGI (SK-MEL-5 melanoma): 9.29 µM
TGI (SK-MEL-2 melanoma): 7.41 µM
TGI (HCT-116 colon): 9.47 µM
TGI (SR leukemia): 0.839 µM
TGI (HOP-92 NSCLC): 4.65 µM
TGI (K-562 leukemia): 14.2 µM
TGI (SF-295 CNS): 5.37 µM
TGI (SNB-19 CNS): > 100 µM
TGI (HT29 colon): 4.99 µM
TGI (MCF7 breast): > 100 µM
TGI (UO-31 renal): > 100 µM
TGI (MDA-MB-435): 3.77 µM
TGI (EKVX NSCLC): 6.02 µM
TGI (HOP-62 NSCLC): 9.64 µM
TGI (SK-OV-3 ovarian): 23.2 µM
TGI (A549 NSCLC): 5.94 µM
TGI (ACHN renal): 6.12 µM
TGI (OVCAR-4 ovarian): 4.78 µM
TGI (COLO 205 colon): 2.25 µM
TGI (SN12C renal): > 100 µM
TGI (KM12 colon): 4.95 µM
TGI (NCI-H460 lung): > 100 µM
TGI (TK-10 renal): > 100 µM
TGI (RPMI-8226 leukemia): 3.68 µM
TGI (CCRF-CEM leukemia): 10.6 µM
TGI (DU-145 prostate): 5.98 µM
TGI (U251 CNS): 14.5 µM
TGI (UACC-257 melanoma): 5.68 µM
TGI (SK-MEL-28 melanoma): 3.97 µM
TGI (OVCAR-5 ovarian): 7.01 µM
TGI (MOLT-4 leukemia): 2.53 µM
TGI (HS 578T breast): > 100 µM
TGI (HCT-15 colon): 7.02 µM
TGI (NCI/ADR-RES ovarian): 21.1 µM
TGI (M14 melanoma): 4.99 µM
